According to the supplement of paper PMC8967900:

How the values were obtained:
Assay in all cases: selective drug sensitivity score (sDSS, relative to normal bone marrow) (sDSS (score)); higher = more potent and effective on the cell line relative to normal bone marrow cells
Conditions in all cases: 72 h
[1] = tested on: REH
[2] = tested on: P30-OHKUBO
[3] = tested on: DND-41
[4] = tested on: MN-60
[5] = tested on: LC4-1
[6] = tested on: NALL-1
[7] = tested on: KARPAS-45
[8] = tested on: KASUMI-2
[9] = tested on: NALM-6
[10] = tested on: PF-382
[11] = tested on: MOLT-14
[12] = tested on: P12-ICHIKAWA
[13] = tested on: HPB-ALL
[14] = tested on: JURKAT
[15] = tested on: ALL-SIL
[16] = tested on: COG-LL-394h
[17] = tested on: MHH-CALL-4
[18] = tested on: ALL-PO
[19] = tested on: KASUMI-9
[20] = tested on: COG-LL-332h
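Note: ALL cell lines in 384-well plates, five doses spanning 10,000-fold, each plate scaled between vehicle and 100 µmol/L benzalkonium chloride controls, sDSS an adapted area-under-curve metric.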

Structure (SMILES) | selective drug sensitivity score [1] | selective drug sensitivity score [2] | selective drug sensitivity score [3] | selective drug sensitivity score [4] | selective drug sensitivity score [5] | selective drug sensitivity score [6] | selective drug sensitivity score [7] | selective drug sensitivity score [8] | selective drug sensitivity score [9] | selective drug sensitivity score [10] | selective drug sensitivity score [11] | selective drug sensitivity score [12] | selective drug sensitivity score [13] | selective drug sensitivity score [14] | selective drug sensitivity score [15] | selective drug sensitivity score [16] | selective drug sensitivity score [17] | selective drug sensitivity score [18] | selective drug sensitivity score [19] | selective drug sensitivity score [20]
CO[C@@H](C(=O)N1Cc2[nH]nc(NC(=O)c3ccc(N4CCN(C)CC4)cc3)c2C1)c1ccccc1 [Danusertib] (top concentration 10000 nM) | 16.5 | 20 | -1.36 | -0.36 | 19.9 | 13.5 | 8.94 | 9.14 | 12.5 | 6.24 | 15.5 | 21.7 | 5.54 | -0.96 | 22.8 | 2.64 | 7.14 | 13 | 15.5 | 17.2
CC(C)(O)CNc1nc(Nc2ccnc(C(F)(F)F)c2)nc(-c2cccc(C(F)(F)F)n2)n1 [Enasidenib] (top concentration 10000 nM) | -0.8 | 1.2 | 0.4 | -0.8 | 3.9 | -0.8 | 4.1 | 4 | -0.8 | -0.1 | -0.8 | 0.2 | -0.5 | -0.7 | 1.8 | 1.7 | -0.8 | 2.7 | -0.8 | -0.5
Cn1cc(C2=C(c3cn(C4CCN(Cc5ccccn5)CC4)c4ccccc34)C(=O)NC2=O)c2ccccc21 [Enzastaurin] (top concentration 10000 nM) | 3.66 | 3.46 | 4.56 | 5.16 | 3.26 | -0.34 | 4.86 | 2.06 | 5.26 | 3.36 | 6.06 | 4.66 | -0.24 | 4.26 | 3.96 | 6.86 | -0.04 | 5.96 | 4.36 | 6.16
CN1CCN(c2ccc(C(=O)Nc3n[nH]c4ccc(Cc5cc(F)cc(F)c5)cc34)c(NC3CCOCC3)c2)CC1 [Entrectinib] (top concentration 1000 nM) | -1.2 | -1.1 | -1.2 | -1.2 | -1.2 | -0.3 | -0.9 | -1.2 | -1.2 | -1.2 | -0.7 | -1.2 | -1.2 | -1.2 | -0.6 | 0.2 | 0.4 | 3.3 | -1.1 | -0.5
CN1CCN(c2ccc3nc(-c4c(N)c5c(F)cccc5[nH]c4=O)[nH]c3c2)CC1 [Dovitinib] (top concentration 10000 nM) | -0.14 | 0.36 | 0.16 | -0.14 | 0.06 | -0.14 | 0.26 | -0.14 | -0.14 | -0.14 | 0.46 | -0.14 | -0.14 | -0.14 | -0.14 | 1.36 | -0.14 | 6.86 | 0.56 | 0.36
CN(C)CCCOc1ccc(-c2ccc3ncc4c(c3c2)n(C2CCOCC2)c(=O)n4C)cn1 [AZD0156] (top concentration 1000 nM) | 0.84 | 2.04 | 4.14 | -0.06 | 1.04 | 2.54 | 0.14 | 2.84 | -0.06 | 0.64 | 0.14 | 0.14 | 0.24 | -0.06 | 1.84 | -0.06 | 1.54 | 2.24 | 1.04 | 0.64
COc1cc2c(cc1OC(C)C)[C@H](c1ccc(Cl)cc1)N(c1ccc(N(C)C[C@H]3CC[C@H](N4CCN(C)C(=O)C4)CC3)cc1)C(=O)C2 [NVP-CGM097] (top concentration 25000 nM) | 5.16 | 10.2 | -5.64 | -0.44 | 10.1 | -6.34 | -3.94 | 8.16 | 5.66 | -5.04 | 8.36 | -5.64 | -3.14 | -4.44 | -6.74 | 6.56 | 7.06 | -3.84 | 14.5 | 8.26
CC[C@H](NC(=O)[C@H](C)NC)C(=O)N1C[C@@H](O)C[C@H]1Cc1c(-c2[nH]c3cc(F)ccc3c2C[C@@H]2C[C@H](O)CN2C(=O)[C@H](CC)NC(=O)[C@H](C)NC)[nH]c2cc(F)ccc12 [Birinapant] (top concentration 1000 nM) | 1.1 | -0.1 | -5.1 | 1.4 | -5.1 | 6.9 | -5.1 | 7.8 | -4.2 | -4.6 | -5.1 | -5.1 | -5.1 | -4.9 | 8.7 | 16.2 | 7.5 | -1.9 | -5.1 | 9.6
CCc1cncnc1N1CCN(Cc2nc3cc(C(F)(F)F)ccc3[nH]2)CC1 (top concentration 10000 nM) | 6.26 | 5.26 | 0.56 | 1.96 | 4.16 | 8.66 | 2.46 | 2.76 | 1.96 | 2.96 | 0.16 | 3.66 | 0.96 | 7.36 | 1.76 | 4.56 | 5.46 | 3.86 | 3.86 | 1.46
N#Cc1ccc2[nH]c(O)c(-c3ccc(CN4CCOCC4)cn3)c2c1 [AZD-1080] (top concentration 10000 nM) | 8.28 | 1.78 | -0.02 | -0.02 | 3.28 | -0.02 | -0.02 | 3.48 | 1.78 | -0.02 | -0.02 | -0.02 | -0.02 | -0.02 | -0.02 | -0.02 | -0.02 | 2.18 | 4.08 | -0.02
CC[C@@](C)(Nc1ccnc(-c2c[nH]c3ncccc23)n1)C(=O)NCC(F)(F)F [Decernotinib] (top concentration 10000 nM) | -3.94 | -3.94 | -2.64 | -3.94 | -3.94 | -3.94 | -3.94 | -1.84 | -3.94 | -3.94 | -3.94 | -3.94 | -3.94 | -3.94 | -2.44 | -3.94 | -3.94 | -3.94 | -3.74 | -3.34
CCNCCS(=O)(=O)NC[C@@]1(c2ccccc2)SC(NC(=O)C(C)(C)C)=NN1C(=O)C(C)(C)C [Litronesib] (top concentration 1000 nM) | 22.3 | 19.6 | 8.64 | 4.64 | 19.8 | 10.9 | 21.9 | 18.9 | 21.5 | 13.7 | 20.7 | 18.5 | 19.7 | 19.2 | 19.2 | 7.74 | 8.54 | 14.8 | 18.4 | 22.1
CN(C)C(=O)c1cc2cnc(Nc3ccc(N4CCNCC4)cn3)nc2n1C1CCCC1 [Ribociclib] (top concentration 10000 nM) | -0.42 | 6.58 | 1.68 | -1.62 | 4.18 | -1.62 | 0.68 | -0.92 | 1.18 | 2.88 | 1.18 | 2.18 | 2.78 | 0.48 | -1.12 | -2.02 | -1.42 | 0.98 | 6.38 | 1.58
c1cc(CN2CCCNCCNCCCNCC2)ccc1CN1CCCNCCNCCCNCC1 [Plerixafor] (top concentration 10000 nM) | 0.1 | 0 | 0 | 0 | 0 | 0 | 0 | 0 | 0.3 | 0 | 0 | 0 | 0 | 0 | 0 | 0 | 0 | 0 | 0 | 0
O=C(c1ccc(OCCN2CCCCC2)cc1)c1c(-c2ccc(O)cc2)sc2cc(O)ccc12 [Raloxifene] (top concentration 10000 nM) | 4.62 | 1.82 | 4.52 | 1.92 | -0.38 | -2.28 | 3.32 | -2.28 | -0.88 | -0.58 | 2.92 | -0.48 | 5.02 | -0.58 | 1.72 | 0.42 | -2.28 | -0.38 | -0.68 | 0.92
O=c1[nH]c(=O)n([C@H]2C[C@H](O)[C@@H](CO)O2)cc1F [Floxuridine] (top concentration 10000 nM) | 25.8 | 37 | 21 | 10.3 | 36.2 | 21 | -1.38 | 33.4 | 24.2 | 9.82 | 27.1 | 30.4 | 1.12 | 18.7 | 18.3 | 3.62 | 22.6 | 36.5 | 29 | 26.1
Nc1nc(Cl)nc2c1ncn2[C@H]1C[C@H](O)[C@@H](CO)O1 [Cladribine] (top concentration 1000 nM) | -2.64 | 8.06 | 1.16 | -6.44 | 6.26 | 1.86 | -15.7 | 6.76 | 0.46 | -5.54 | 5.66 | -5.24 | -9.34 | -10.7 | 9.36 | -16 | 4.06 | 8.66 | 7.76 | 3.26
Cc1sc2c(c1C)C(c1ccc(Cl)cc1)=N[C@@H](CC(=O)Nc1ccc(OCCOCCOCCOCCNc3cccc4c3C(=O)N(C3CCC(=O)NC3=O)C4=O)cc1)c1nnc(C)n1-2 (stereo not given in full) [ARV-825] (top concentration 300 nM) | -0.26 | 3.74 | 0.84 | -1.56 | 3.64 | -12.1 | -8.06 | -4.46 | 1.24 | 0.14 | -0.86 | -7.46 | -10.9 | -13.2 | -6.46 | -0.96 | 7.54 | 2.34 | 6.64 | -1.46
